Source: PubChem BioAssay (NCI)
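Protocol summary: plate cells (96-well), add compound at 5 concentrations, incubate 48 h, interpolate endpoints linearly. TGI denotes the concentration required for complete inhibition of growth.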

Legend:
Test in all cases: growth of human tumour cells (NCI), 48 h
786-0 renal = system: 786-0 renal
A498 renal = system: A498 renal
A549 NSCLC = system: A549 NSCLC
ACHN renal = system: ACHN renal
CAKI-1 renal = system: CAKI-1 renal
COLO 205 colon = system: COLO 205 colon
DLD-1 colon = system: DLD-1 colon
DMS 114 small cell lung = system: DMS 114 small cell lung
DMS 273 small cell lung = system: DMS 273 small cell lung
EKVX NSCLC = system: EKVX NSCLC
HCC-2998 colon = system: HCC-2998 colon
HCT-116 colon = system: HCT-116 colon
HL-60(TB) leukemia = system: HL-60(TB) leukemia
HOP-18 NSCLC = system: HOP-18 NSCLC
HOP-62 NSCLC = system: HOP-62 NSCLC
HOP-92 NSCLC = system: HOP-92 NSCLC
HT29 colon = system: HT29 colon
IGROV1 ovarian = system: IGROV1 ovarian
K-562 leukemia = system: K-562 leukemia
KM12 colon = system: KM12 colon
KM20L2 colon = system: KM20L2 colon
LOX IMVI melanoma = system: LOX IMVI melanoma
LXFL 529 NSCLC = system: LXFL 529 NSCLC
M14 melanoma = system: M14 melanoma
M19-MEL melanoma = system: M19-MEL melanoma
MALME-3M melanoma = system: MALME-3M melanoma
MOLT-4 leukemia = system: MOLT-4 leukemia
NCI-H226 lung = system: NCI-H226 lung
NCI-H23 lung = system: NCI-H23 lung
NCI-H460 lung = system: NCI-H460 lung
NCI-H522 lung = system: NCI-H522 lung
OVCAR-3 ovarian = system: OVCAR-3 ovarian
OVCAR-4 ovarian = system: OVCAR-4 ovarian
OVCAR-5 ovarian = system: OVCAR-5 ovarian
OVCAR-8 ovarian = system: OVCAR-8 ovarian
RPMI-8226 leukemia = system: RPMI-8226 leukemia
RXF 393 renal = system: RXF 393 renal
RXF-631 renal = system: RXF-631 renal
SF-268 CNS = system: SF-268 CNS
SF-295 CNS = system: SF-295 CNS
SF-539 CNS = system: SF-539 CNS
SK-MEL-2 melanoma = system: SK-MEL-2 melanoma
SK-MEL-28 melanoma = system: SK-MEL-28 melanoma
SK-MEL-5 melanoma = system: SK-MEL-5 melanoma
SK-OV-3 ovarian = system: SK-OV-3 ovarian
SN12C renal = system: SN12C renal
SNB-19 CNS = system: SNB-19 CNS
SNB-75 CNS = system: SNB-75 CNS
SR leukemia = system: SR leukemia
SW-620 colon = system: SW-620 colon
TK-10 renal = system: TK-10 renal
U251 CNS = system: U251 CNS
UACC-257 melanoma = system: UACC-257 melanoma
UACC-62 melanoma = system: UACC-62 melanoma
UO-31 renal = system: UO-31 renal

SMILES: COc1cc(/C=C2/C(=O)N(C(=O)OCc3ccccc3)C(Cc3cc(OC)c(OC)c(C)c3OC)C(=O)N2Cc2ccccc2)c(OC)c(C)c1OC (stereo not given)
- TGI (786-0 renal): > 100 µM
- TGI (A498 renal): > 100 µM
- TGI (A549 NSCLC): > 100 µM
- TGI (ACHN renal): > 100 µM
- TGI (CAKI-1 renal): > 100 µM
- TGI (COLO 205 colon): > 100 µM
- TGI (DLD-1 colon): > 100 µM
- TGI (DMS 114 small cell lung): > 100 µM
- TGI (DMS 273 small cell lung): > 100 µM
- TGI (EKVX NSCLC): > 100 µM
- TGI (HCC-2998 colon): > 100 µM
- TGI (HCT-116 colon): > 100 µM
- TGI (HL-60(TB) leukemia): > 100 µM
- TGI (HOP-18 NSCLC): > 100 µM
- TGI (HOP-62 NSCLC): > 100 µM
- TGI (HOP-92 NSCLC): > 100 µM
- TGI (HT29 colon): > 100 µM
- TGI (IGROV1 ovarian): > 100 µM
- TGI (K-562 leukemia): > 100 µM
- TGI (KM12 colon): > 100 µM
- TGI (KM20L2 colon): > 100 µM
- TGI (LOX IMVI melanoma): > 100 µM
- TGI (LXFL 529 NSCLC): > 100 µM
- TGI (M14 melanoma): > 100 µM
- TGI (M19-MEL melanoma): > 100 µM
- TGI (MALME-3M melanoma): > 100 µM
- TGI (MOLT-4 leukemia): > 100 µM
- TGI (NCI-H226 lung): 12.6 µM
- TGI (NCI-H23 lung): > 100 µM
- TGI (NCI-H460 lung): > 100 µM
- TGI (NCI-H522 lung): > 100 µM
- TGI (OVCAR-3 ovarian): > 100 µM
- TGI (OVCAR-4 ovarian): > 100 µM
- TGI (OVCAR-5 ovarian): > 100 µM
- TGI (OVCAR-8 ovarian): > 100 µM
- TGI (RPMI-8226 leukemia): > 100 µM
- TGI (RXF 393 renal): > 100 µM
- TGI (RXF-631 renal): > 100 µM
- TGI (SF-268 CNS): > 100 µM
- TGI (SF-295 CNS): > 100 µM
- TGI (SF-539 CNS): > 100 µM
- TGI (SK-MEL-2 melanoma): > 100 µM
- TGI (SK-MEL-28 melanoma): > 100 µM
- TGI (SK-MEL-5 melanoma): 65.9 µM
- TGI (SK-OV-3 ovarian): > 100 µM
- TGI (SN12C renal): > 100 µM
- TGI (SNB-19 CNS): > 100 µM
- TGI (SNB-75 CNS): > 100 µM
- TGI (SR leukemia): > 100 µM
- TGI (SW-620 colon): > 100 µM
- TGI (TK-10 renal): > 100 µM
- TGI (U251 CNS): > 100 µM
- TGI (UACC-257 melanoma): > 100 µM
- TGI (UACC-62 melanoma): > 100 µM
- TGI (UO-31 renal): > 100 µM
